One assay deals with A549. As to the kind of experiment: Inhibition of cell viability (MTS), A549 (negative control line). In kind it is cell-based. As to conditions: Homo sapiens, A549 cells (negative control), 96 hours incubation. As to the method: (§1) Cells were maintained at 37° C. in a humidified atmosphere containing 5%-8% CO2 following the instructions of the supplier (American Type Culture Collection (Rockville, Md.)). Inhibition of cell viability was determined for a panel of tumor cell lines (MKN45, EBC1 and A549), using the soluble tetrazolium salt, MTS (Promega, Madison, Wis.). Cells were seeded at 2,000-7,500 cells/well in 96-well tissue culture plates and were allowed to attach for approximately 24 hours prior to addition of compounds or DMSO vehicle. […] Cells were treated in duplicate with test compounds. Compounds were serially diluted (1:2.5) from column 1 to 11 and column 12 contained DMSO vehicle. Compounds were diluted into cell growth medium then compound solution was added to cells. Equal amounts of DMSO were added to cells (final concentration is 0.5%). After background correction and normalization against DMSO-treated cells, EC50 values were calculated using non-linear curve-fitting of the cell viability as a function of compound concentration. The MKN45 and EBC1 cell lines contain high levels of phospho-Met and are dependent on cMET for proliferation, whereas the A549 line is used as negative control.
(§2) EC50 values may be calculated by non-linear curve fitting of the compound concentrations and fluorescence intensities to the standard EC50 equation.

Assay [1] concerns the target T1, cMET enzyme (amino acids 1023-1360) (Homo sapiens, UniProt P08581).
T1 construct: The cMET enzyme (amino acids 1023-1360) nominally at 24 μM was held at −80° C. until use; His tag (N, cleaved yes); made in house; host or cells: Sf9 cells
As to the kind of experiment: Determination of inhibition of cMET (capillary electrophoresis, phosphorylated peptide product). In kind it is biochemical. As to conditions: 1.2 nM cMET, 50 μM ATP, 2 μM FL-2 peptide, 2 hours room temperature. As to the method:
The inhibitory property of a compound relative to cMET catalysis was determined by use of capillary electrophoresis with fluorescence quantification of a phosphorylated peptide product for cMET. The cMET enzyme (amino acids 1023-1360) nominally at 24 μM was held at −80° C. until use, in a buffer containing 25 mM Tris-HCl pH 8.5, 150 mM NaCl, 3 mM DTT and 10% glycerol. […] Following purification, the tag was removed and enzyme concentrated. […] To activate the enzyme fully, frozen cMET was thawed quickly and activated with the addition of assay buffer (50 mM HEPES pH 7.5, 10 mM NaCl, 10 mM MgCl2, 0.01% Brij® 35), 1.25 mM ATP, 5 mM MgCl2 and 5 mM DTT at a cMET concentration of 2.4 μM followed by a 30 minute incubation at room temperature. […] Next, cMET enzyme (1.2 nM final) was added and the system incubated at room temperature for 20 minutes. Catalysis was initiated by the addition of ATP (50 μM final). Assays were incubated at room temperature for 2 hours then quenched by the addition of EDTA. Phosphorylated peptide product was quantified by monitoring fluorescence during capillary electrophoresis with Caliper LifeSciences LabChip 3000 under the following settings: base pressure=−0.1 psi, screen pressure=−1.2 psi, downstream voltage=−500 V, upstream voltage=−2300 V, chip type=TC372. The elution buffer was identical to the assay buffer except for the absence of DTT, FL-2 and ATP and the addition of 0.1% coating reagent (Caliper). […] Peak height was quantified and used to determine enzyme velocities.
IC50 values were calculated by non-linear least squares curve fitting of the standard IC50 equation to background-corrected cMET velocity versus compound concentration.

The next assay deals with EBC1. The experiment in a line: Inhibition of cell viability (MTS), EBC1. As to conditions: Homo sapiens, 96 hours incubation. In kind it is cell-based. The method, then: as §1, §2
A further assay deals with MKN45. The experiment in a line: Inhibition of cell viability (MTS), MKN45. The class given is cell-based. As to conditions: Homo sapiens, 96 hours incubation. The method, then:
as §1, §2

Counter-ions that a name gives are not always drawn.

T1 sequence (P08581 1023-1360): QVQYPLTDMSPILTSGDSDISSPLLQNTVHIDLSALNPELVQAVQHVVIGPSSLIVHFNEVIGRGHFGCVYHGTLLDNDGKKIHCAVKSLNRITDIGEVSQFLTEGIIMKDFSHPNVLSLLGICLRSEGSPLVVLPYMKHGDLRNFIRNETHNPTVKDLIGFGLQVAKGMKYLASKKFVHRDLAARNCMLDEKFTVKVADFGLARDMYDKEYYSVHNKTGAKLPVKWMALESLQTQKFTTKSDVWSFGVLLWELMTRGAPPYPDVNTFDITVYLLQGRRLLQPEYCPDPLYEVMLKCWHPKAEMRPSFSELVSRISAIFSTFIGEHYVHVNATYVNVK

For orientation: EC50 means the midpoint of the concentration-response curve. Higher therefore signals a need for much substance. One may read the IC50 as the concentration at which inhibition is half-maximal. A high value points to a need for much substance. Turning to `Cc1n[nH]c(C)c1-c1ccc2nnn(Cc3ccc4nc(NC(=O)C5CC5)cn4n3)c2c1` [Compound 20], the EC50 in the assay on A549 (A549, 96 h) was more than 50 µM; with EBC1 (EBC-1, 96 h, EBC1 cells) it was more than 200 nM; in the assay with MKN45 (MKN-45, 96 h, MKN45 cells), 250 to 630 nM. The IC50 in assay [1] lay within 60 to 100 nM.

`O=C(Nc1cn2nc(C(F)(F)c3nnc4ccc(-c5cnn(CCO)c5)cn34)ccc2n1)C1CC1` [Compound 47, N-(6-(difluoro(6-(1-(2-hydroxyethyl)-1H-pyrazol-4-yl)-[1,2,4]triazolo[4,3-a]pyridin-3-yl)methyl)imidazo[1,2-b]pyridazin-2-yl)cyclopropanecarboxamide]: the EC50 in the assay on A549 (A549, 96 h) was more than 50 µM; in the assay on EBC1 (EBC-1, 96 h, EBC1 cells), less than 30 nM; with MKN45 (MKN-45, 96 h, MKN45 cells), less than 30 nM. In assay [1], this molecule gave an IC50 of less than 30 nM.

As for `O=C(NCCO)Nc1cn2nc(Sc3nnc4ccc(-c5cccc(F)c5)cn34)ccc2n1` [Compound 27, 1-(6-(6-(3-fluorophenyl)-[1,2,4]triazolo[4,3-a]pyridin-3-ylthio)imidazo[1,2-b]pyridazin-2-yl)-3-(2-hydroxyethyl)urea], the EC50 with A549 is more than 50 µM; in the assay with EBC1 (EBC-1, EBC1 cells), 35 to 99 nM; in the assay on MKN45 (MKN-45, MKN45 cells), less than 100 nM. For the same molecule, the IC50 in assay [1] was less than 30 nM.

Regarding `O=C(Nc1cn2nc(Sc3nnc4ccc(Br)cn34)ccc2n1)C1CC1` [Compound 4, N-(6-(6-bromo-[1,2,4]triazolo[4,3-a]pyridin-3-ylthio)imidazo[1,2-b]pyridazin-2-yl)cyclopropanecarboxamide], the EC50 is more than 50 µM with A549 (A549, 96 h); less than 35 nM in the assay with EBC1 (EBC-1, 96 h, EBC1 cells); 100 to 249 nM in the assay on MKN45 (MKN-45, 96 h, MKN45 cells). In assay [1], this molecule came in with an IC50 of 30 to 59 nM.

Take `C=C(C)c1ccc2nnc(Sc3ccc4nc(NC(=O)C5CC5)cn4n3)n2c1` [Compound 25, N-(6-(6-(prop-1-en-2-yl)-[1,2,4]triazolo[4,3-a]pyridin-3-ylthio)imidazo[1,2-b]pyridazin-2-yl)cyclopropanecarboxamide]: the concentration for a half-maximal effect (EC50) in the assay with A549 (A549, 96 h) is 8 to 25 µM; in the assay with EBC1 (EBC-1, 96 h, EBC1 cells), less than 35 nM; in the assay on MKN45 (MKN-45, 96 h, MKN45 cells) it was less than 100 nM. Also, the IC50 in assay [1] was less than 30 nM.

In the case of `COc1cccc(-c2ccc3nnc(C(F)(F)c4ccc5nc(NC(=O)C6CC6)cn5n4)n3c2)c1` [Compound 76, N-(6-(difluoro(6-(3-methoxyphenyl)-[1,2,4]triazolo[4,3-a]pyridin-3-yl)methyl)imidazo[1,2-b]pyridazin-2-yl)cyclopropanecarboxamide], the EC50 in the assay with A549 (A549, 96 h) is more than 50 µM; with EBC1 (EBC-1, 96 h, EBC1 cells), less than 30 nM; in the assay with MKN45 (MKN-45, 96 h, MKN45 cells), less than 30 nM. The molecule further displayed an IC50 in assay [1] of less than 30 nM.

As for `Cc1cc(F)cc(-c2ccc3nnc(C(F)(F)c4ccc5nc(NC(=O)C6CC6)cn5n4)n3c2)c1` [Compound 97, N-(6-(difluoro(6-(3-fluoro-5-methylphenyl)-[1,2,4]triazolo[4,3-a]pyridin-3-yl)methyl)imidazo[1,2-b]pyridazin-2-yl)cyclopropanecarboxamide], the EC50 with A549 (A549, 96 h) is more than 50 µM; in the assay on EBC1 (EBC-1, 96 h, EBC1 cells), less than 30 nM; in the assay with MKN45 (MKN-45, 96 h, MKN45 cells), less than 30 nM. The same molecule gave an IC50 in assay [1] of less than 30 nM.

In the case of `O=C(Nc1cn2nc(Cn3nnc4ccc(-c5cnn(C[C@H](O)CO)c5)cc43)ccc2n1)C1CC1` [Compound 22], the EC50 is more than 50 µM with A549 (A549, 96 h); more than 200 nM with EBC1 (EBC-1, 96 h, EBC1 cells); more than 630 nM with MKN45 (MKN-45, 96 h, MKN45 cells). The same molecule gave an IC50 in assay [1] of 60 to 100 nM.

Consider `COCc1nc(-c2ccc3nnc(Sc4ccc5nc(NC(=O)C6CC6)cn5n4)n3c2)no1` [Compound 39, N-(6-(6-(5-(methoxymethyl)-1,2,4-oxadiazol-3-yl)-[1,2,4]triazolo[4,3-a]pyridin-3-ylthio)imidazo[1,2-b]pyridazin-2-yl)cyclopropanecarboxamide], for which the EC50 lay within 0.6 to 1.6 µM in the assay on A549 (A549, 96 h); 35 to 99 nM in the assay on EBC1 (EBC-1, 96 h, EBC1 cells); 100 to 249 nM in the assay on MKN45 (MKN-45, 96 h, MKN45 cells). Moreover, in assay [1], the IC50 lay in the range of 60 to 100 nM.

`COc1cncc(-c2ccc3nnn(Cc4ccc5nc(NC(=O)C6CC6)cn5n4)c3c2)c1` [Compound 19]: the EC50 in the assay with A549 (A549, 96 h) was more than 19.5 µM; with EBC1 (EBC-1, 96 h, EBC1 cells), 100 to 199 nM; in the assay on MKN45 (MKN-45, 96 h, MKN45 cells), 250 to 630 nM. This molecule had an IC50 in assay [1] of 60 to 100 nM.

In assay [1], `NC(=O)c1ccc(-c2ccc3nnc(C(F)(F)c4ccc5nc(NC(=O)C6CC6)cn5n4)n3c2)cc1` [Compound 89, 4-(3-((2-(cyclopropanecarboxamido)imidazo[1,2-b]pyridazin-6-yl)difluoromethyl)-[1,2,4]triazolo[4,3-a]pyridin-6-yl)benzamide] showed an IC50 of less than 30 nM.

Molecule `COCCOCc1ccc2nnc(Sc3ccc4nc(NC(=O)C5CC5)cn4n3)n2c1` [Compound 112, N-(6-(6-((2-methoxyethoxy)methyl)-[1,2,4]triazolo[4,3-a]pyridin-3-ylthio)imidazo[1,2-b]pyridazin-2-yl)cyclopropanecarboxamide] had an IC50 in assay [1] of 100 to 249 nM.

As to `Cc1ccn2c(Sc3ccc4nc(NC(=O)C5CC5)cn4n3)nnc2c1` [Compound 43, N-(6-(7-methyl-[1,2,4]triazolo[4,3-a]pyridin-3-ylthio)imidazo[1,2-b]pyridazin-2-yl)cyclopropanecarboxamide], in assay [1], the IC50 is more than 100 nM.

`Cn1cc(-c2ccc3nnc(C(F)(F)c4ccc5nc(NC(=O)C6CC6)cn5n4)n3c2)cn1` [45 (TFA Salt), N-(6-(difluoro(6-(1-methyl-1H-pyrazol-4-yl)-[1,2,4]triazolo[4,3-a]pyridin-3-yl)methyl)imidazo[1,2-b]pyridazin-2-yl)cyclopropanecarboxamide] showed an IC50 in assay [1] of 30 to 59 nM.

`CNC(=O)c1ccc(-c2ccc3nnc(C(F)(F)c4ccc5nc(NC(=O)C6CC6)cn5n4)n3c2)cc1` [Compound 95, 4-(3-((2-(cyclopropanecarboxamido)imidazo[1,2-b]pyridazin-6-yl)difluoromethyl)-[1,2,4]triazolo[4,3-a]pyridin-6-yl)-N-methylbenzamide] returned a half-inhibitory concentration (IC50) in assay [1] of less than 30 nM.

Regarding `CCn1cc(-c2ccc3nnc(Sc4ccc5nc(NC(=O)C6CC6)cn5n4)n3c2)ccc1=O` [Compound 106, N-(6-(6-(1-ethyl-6-oxo-1,6-dihydropyridin-3-yl)-[1,2,4]triazolo[4,3-a]pyridin-3-ylthio)imidazo[1,2-b]pyridazin-2-yl)cyclopropanecarboxamide], the IC50 in assay [1] was less than 30 nM.

In assay [1], `Cn1cc(-c2ccc3nnc(Sc4ccc5nc(NC(=O)C6CC6)cn5n4)n3c2)ccc1=O` [Compound 105, N-(6-(6-(1-methyl-6-oxo-1,6-dihydropyridin-3-yl)-[1,2,4]triazolo[4,3-a]pyridin-3-ylthio)imidazo[1,2-b]pyridazin-2-yl)cyclopropanecarboxamide] registered an IC50 of less than 30 nM.

`Cc1ccncc1-c1ccc2nnc(C(F)(F)c3ccc4nc(NC(=O)C5CC5)cn4n3)n2c1` [Compound 94, N-(6-(difluoro(6-(4-methylpyridin-3-yl)-[1,2,4]triazolo[4,3-a]pyridin-3-yl)methyl)imidazo[1,2-b]pyridazin-2-yl)cyclopropanecarboxamide] registered an IC50 in assay [1] of 250 to 630 nM.

`O=C(Nc1cn2cc(Cn3nnc4ncccc43)ccc2n1)C(F)(F)F` [Compound 2, N-(6-((1H-[1,2,3]triazolo[4,5-b]pyridin-1-yl)methyl)imidazo-[1,2-a]pyridin-2-yl)-2,2,2-trifluoroacetamide] showed an IC50 in assay [1] of more than 100 nM.

Regarding `O=C(Nc1cn2cc(Cn3nnc4cccnc43)ccc2n1)C(F)(F)F` [Compound 1, N-(6-((3H-[1,2,3]triazolo[4,5-b]pyridin-3-yl)methyl)imidazo[1,2-a]pyridin-2-yl)-2,2,2-trifluoroacetamide], in assay [1], the IC50 is more than 100 nM.

`Cc1c(F)ccc2nnc(Sc3ccc4nc(NC(=O)C5CC5)cn4n3)n12` [Compound 113, N-(6-(6-fluoro-5-methyl-[1,2,4]triazolo[4,3-a]pyridin-3-ylthio)imidazo[1,2-b]pyridazin-2-yl)cyclopropanecarboxamide]: the IC50 in assay [1] was in the range of 250 to 630 nM.

The record behind these values is patent US8178534B2, “cMET inhibitors” (Takeda Pharmaceutical Company Limited, priority 2008, dated 2012).
